Experimental data from patent publication US20210155604A1, “QUINAZOLINE COMPOUND SERVING AS EGFR TRIPLE MUTATION INHIBITOR AND APPLICATIONS THEREOF” (EAST CHINA UNIVERSITY OF SCIENCE AND TECHNOLOGY, priority 2018, published 2021).

Legend:
EGFR L858R/T790M (LR/TM) = EGFR L858R/T790M (LR/TM) (Homo sapiens, UniProt P00533, L858R/T790M); assay: ELISA kinase activity detection, EGFR double mutant; type: biochemical; conditions: ELISA-based EGFR-TK assay, ATP 5 μM, mean ± SD
EGFR(WT) = EGFR(WT) (Homo sapiens, UniProt P00533); assay: ELISA kinase activity detection, EGFR(WT); type: biochemical; conditions: ELISA-based EGFR-TK assay, ATP 5 μM; mean ± SD of at least two determinations
Procedure: (§1) Tyrosine kinase: EGFR(WT) • EGFR^T790M/L858R(LR/TM) • EGFR^T790M/L858R/[…](LR/TM/CS)
(§2) ELISA Kinase Activity Detection
Enzyme-Linked Immunosorbent Assay (ELISA) was used to detect the ability of a kinase to phosphorylate a substrate and calculate the inhibitory effect of a compound on the kinase activity. […]
(§3) The main steps of ELISA are listed as follows: the substrate Poly(Glu, Tyr) 4:1 was diluted with potassium ion-free PBS to 2.5 μg/well, incubated at 37° C. for 12-16 h to coat the ELISA plate for use. An ATP solution (final concentration of 5 μM) diluted with a reaction buffer (50 mM HEPES pH 7.4, 20 mM MgCl2, 0.1 mM MnCl2, 0.2 mM Na3VO4, 1 mM DTT) was added to each well. A compound or solvent control was added, and then a kinase was added to start the reaction at 37° C. in a shaker for 1 h. The plate was washed for three times with T-PBS, and 100 μL of antibody PY99 (diluted in T-PBS containing 5 mg/mL BSA, 1: 500) was added, and incubated in a shaker at 37° C. for 0.5 h. After washing the plate with T-PBS, 100 μL of horseradish peroxidase-labeled goat anti-mouse IgG (diluted in T-PBS containing 5 mg/mL BSA, 1: 2000) was added, and incubated in a shaker at 37° C. for 0.5 h. After washing the plate again, a developing liquid containing 0.03% H2O2, 2 mg/mL OPD (0.1 mol/L, in citrate buffer solution pH 5.4) was added at 100 μL/well, and incubated for 1-10 min at 25° C. in darkness. 50 μL/well of 2 M H2SO4 was added to quench the reaction, and read with a wavelength-tunable microplate reader (SpectraMax Plus384, Molecular Devices) at a wavelength of 490 nm. The IC50 value was obtained from the inhibition curve.

[1] = target: T1, EGFR L858R/T790M/C797S (LR/TM/CS) (Homo sapiens, UniProt P00533, C797S/L858R/T790M); assay: ELISA kinase activity detection, EGFR triple mutant; type: biochemical; conditions: ELISA-based EGFR-TK assay, ATP 5 μM, mean ± SD
T1 construct: purchased BPS Bioscience
Procedure: as §1, §2
Enzyme-Linked Immunosorbent Assay (ELISA) was used to detect the ability of a kinase to phosphorylate a substrate and calculate the inhibitory effect of a compound on the kinase activity. The used kinase was EGFR L858R/T790M/C797S (purchased from BPS Bioscience).
as §3

T1 sequence (P00533 25-1210 T790M/C797S/L858R): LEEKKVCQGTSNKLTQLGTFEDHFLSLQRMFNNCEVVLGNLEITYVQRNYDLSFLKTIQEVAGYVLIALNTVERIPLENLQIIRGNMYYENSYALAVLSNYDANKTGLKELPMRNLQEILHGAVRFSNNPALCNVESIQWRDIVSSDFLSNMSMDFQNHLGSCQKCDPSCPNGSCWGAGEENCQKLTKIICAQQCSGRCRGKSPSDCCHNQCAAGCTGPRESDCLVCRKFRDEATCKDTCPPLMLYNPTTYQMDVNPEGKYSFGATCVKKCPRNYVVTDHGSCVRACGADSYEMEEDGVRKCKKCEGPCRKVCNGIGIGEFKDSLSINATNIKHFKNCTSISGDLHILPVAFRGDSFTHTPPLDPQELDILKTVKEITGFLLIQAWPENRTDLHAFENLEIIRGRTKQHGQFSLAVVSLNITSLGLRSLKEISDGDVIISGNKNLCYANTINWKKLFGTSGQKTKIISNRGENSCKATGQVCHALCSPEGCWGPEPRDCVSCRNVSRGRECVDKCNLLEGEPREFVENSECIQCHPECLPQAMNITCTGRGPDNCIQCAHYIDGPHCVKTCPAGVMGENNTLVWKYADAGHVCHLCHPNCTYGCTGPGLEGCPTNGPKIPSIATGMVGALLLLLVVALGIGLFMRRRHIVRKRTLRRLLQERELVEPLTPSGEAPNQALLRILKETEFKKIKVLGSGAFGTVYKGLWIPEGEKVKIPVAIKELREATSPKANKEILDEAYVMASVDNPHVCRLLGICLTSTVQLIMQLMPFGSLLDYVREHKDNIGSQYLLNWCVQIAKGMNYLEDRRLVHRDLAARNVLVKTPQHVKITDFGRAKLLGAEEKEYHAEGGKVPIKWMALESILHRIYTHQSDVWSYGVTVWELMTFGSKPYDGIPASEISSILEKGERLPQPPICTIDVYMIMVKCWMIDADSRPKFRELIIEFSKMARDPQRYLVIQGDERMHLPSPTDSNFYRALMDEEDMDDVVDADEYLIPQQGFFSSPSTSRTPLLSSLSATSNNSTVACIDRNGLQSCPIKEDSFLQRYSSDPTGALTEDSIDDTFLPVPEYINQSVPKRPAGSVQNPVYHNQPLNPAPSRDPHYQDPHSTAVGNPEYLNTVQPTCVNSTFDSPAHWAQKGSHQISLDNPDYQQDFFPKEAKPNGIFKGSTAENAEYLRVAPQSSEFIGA
Sequence of EGFR L858R/T790M (LR/TM) (P00533 25-1210 T790M/L858R): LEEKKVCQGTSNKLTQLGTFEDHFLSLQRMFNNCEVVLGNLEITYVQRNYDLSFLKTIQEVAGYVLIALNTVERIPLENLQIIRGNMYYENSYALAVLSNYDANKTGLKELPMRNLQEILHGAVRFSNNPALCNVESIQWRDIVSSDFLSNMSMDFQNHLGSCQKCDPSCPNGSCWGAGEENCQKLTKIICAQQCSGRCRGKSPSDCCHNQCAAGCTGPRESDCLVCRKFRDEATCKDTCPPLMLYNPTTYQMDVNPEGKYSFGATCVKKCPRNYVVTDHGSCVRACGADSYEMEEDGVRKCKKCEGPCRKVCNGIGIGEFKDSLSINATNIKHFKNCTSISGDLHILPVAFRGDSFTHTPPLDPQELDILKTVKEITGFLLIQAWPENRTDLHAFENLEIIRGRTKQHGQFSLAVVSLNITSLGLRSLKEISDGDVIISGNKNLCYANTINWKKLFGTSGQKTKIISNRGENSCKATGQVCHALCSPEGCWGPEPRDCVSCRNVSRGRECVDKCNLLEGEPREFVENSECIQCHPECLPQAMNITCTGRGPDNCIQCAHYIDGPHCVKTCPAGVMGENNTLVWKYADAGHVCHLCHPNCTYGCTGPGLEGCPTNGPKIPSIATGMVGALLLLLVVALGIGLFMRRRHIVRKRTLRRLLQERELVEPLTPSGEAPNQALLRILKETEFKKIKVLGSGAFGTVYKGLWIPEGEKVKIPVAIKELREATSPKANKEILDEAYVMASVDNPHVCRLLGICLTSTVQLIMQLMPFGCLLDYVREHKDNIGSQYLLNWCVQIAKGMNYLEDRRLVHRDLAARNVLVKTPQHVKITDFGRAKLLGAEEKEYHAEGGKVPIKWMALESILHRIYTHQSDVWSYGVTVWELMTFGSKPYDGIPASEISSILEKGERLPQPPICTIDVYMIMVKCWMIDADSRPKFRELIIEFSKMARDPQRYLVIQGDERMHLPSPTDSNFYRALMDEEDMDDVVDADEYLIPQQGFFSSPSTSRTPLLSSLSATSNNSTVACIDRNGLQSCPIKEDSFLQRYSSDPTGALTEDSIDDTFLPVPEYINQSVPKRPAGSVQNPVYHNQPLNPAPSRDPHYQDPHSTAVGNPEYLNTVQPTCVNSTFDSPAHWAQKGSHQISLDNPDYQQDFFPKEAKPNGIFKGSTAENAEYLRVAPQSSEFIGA
Sequence of EGFR(WT) (P00533 25-1210): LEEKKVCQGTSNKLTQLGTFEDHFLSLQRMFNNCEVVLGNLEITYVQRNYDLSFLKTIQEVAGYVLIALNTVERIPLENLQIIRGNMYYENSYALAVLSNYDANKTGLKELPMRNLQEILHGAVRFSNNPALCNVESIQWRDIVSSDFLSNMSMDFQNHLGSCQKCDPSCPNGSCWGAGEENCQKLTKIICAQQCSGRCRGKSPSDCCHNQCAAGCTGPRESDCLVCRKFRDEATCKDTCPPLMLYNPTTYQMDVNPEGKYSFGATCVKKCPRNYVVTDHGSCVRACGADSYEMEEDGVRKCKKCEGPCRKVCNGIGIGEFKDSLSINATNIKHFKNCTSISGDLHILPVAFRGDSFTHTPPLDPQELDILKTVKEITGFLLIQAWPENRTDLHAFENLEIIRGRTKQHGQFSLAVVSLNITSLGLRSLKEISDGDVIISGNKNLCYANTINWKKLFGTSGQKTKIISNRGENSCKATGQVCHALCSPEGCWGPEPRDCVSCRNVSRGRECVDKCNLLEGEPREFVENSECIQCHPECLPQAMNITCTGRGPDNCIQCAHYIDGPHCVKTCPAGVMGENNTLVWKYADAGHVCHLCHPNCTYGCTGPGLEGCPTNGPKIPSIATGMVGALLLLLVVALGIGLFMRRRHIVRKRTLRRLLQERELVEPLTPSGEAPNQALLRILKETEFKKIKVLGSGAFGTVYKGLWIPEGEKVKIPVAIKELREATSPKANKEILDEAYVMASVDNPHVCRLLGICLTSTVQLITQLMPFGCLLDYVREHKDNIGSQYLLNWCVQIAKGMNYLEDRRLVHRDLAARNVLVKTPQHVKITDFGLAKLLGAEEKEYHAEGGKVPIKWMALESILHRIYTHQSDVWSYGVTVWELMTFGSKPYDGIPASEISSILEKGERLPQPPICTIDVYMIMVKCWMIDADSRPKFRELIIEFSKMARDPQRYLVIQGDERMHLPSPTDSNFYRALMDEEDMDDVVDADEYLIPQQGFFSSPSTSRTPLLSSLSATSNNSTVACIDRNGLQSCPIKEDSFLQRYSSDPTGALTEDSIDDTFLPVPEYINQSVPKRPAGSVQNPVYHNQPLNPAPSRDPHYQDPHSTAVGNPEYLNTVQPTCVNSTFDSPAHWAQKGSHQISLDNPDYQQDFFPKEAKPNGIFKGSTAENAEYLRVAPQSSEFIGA

## COc1cc2c(Nc3cc(NC(=O)c4ccccc4)ccc3F)ncnc2cc1OCC1CCN(C)CC1 [Example 2, N-(4-Fluoro-3-((6-methoxy-7-((1-methylpiperidin-4-yl)methoxy)quinazolin-4-yl)amino)phenyl)benamide]
EGFR L858R/T790M (LR/TM)
  IC50: > 10000 nM
EGFR(WT)
  IC50: 53.7 ± 13.8 nM
[1]
  IC50: > 10000 nM

## COc1cc2ncnc(Nc3ccc(NC(=O)C(c4ccccc4)N4Cc5ccccc5C4=O)cc3F)c2cc1OC (stereo not drawn) [Example 17]
EGFR L858R/T790M (LR/TM)
  IC50: 8.5 ± 0.7 nM
EGFR(WT)
  IC50: 16.1 ± 4.8 nM
[1]
  IC50: 37.1 ± 18.8 nM

## COc1cc2c(Nc3ccc(NC(=O)CC4Cc5ccccc5C4)cc3F)ncnc2cc1OCC1CCN(C)CC1 [Example 5]
EGFR L858R/T790M (LR/TM)
  IC50: 1380 ± 235 nM
EGFR(WT)
  IC50: 68.3 ± 13 nM
[1]
  IC50: > 10000 nM

## COc1cc2c(Nc3ccc(NC(=O)c4ccccc4)cc3F)ncnc2cc1OCC1CCN(C)CC1 [Example 1]
EGFR L858R/T790M (LR/TM)
  IC50: 6630 ± 657 nM
EGFR(WT)
  IC50: 59.9 ± 1.8 nM
[1]
  IC50: > 10000 nM

## COc1cc2c(Nc3cc(NC(=O)C(c4ccccc4)N4Cc5ccccc5C4=O)ccc3F)ncnc2cc1OCC1CCN(C)CC1 (stereo not drawn) [Example 18]
EGFR L858R/T790M (LR/TM)
  IC50: 3.2 ± 1.3 nM
EGFR(WT)
  IC50: 1.3 ± 0.6 nM
[1]
  IC50: 14.5 ± 5.2 nM

## COc1cc2ncnc(Nc3ccc(NC(=O)C(c4ccccc4)N4Cc5ccccc5C4=O)cc3F)c2cc1OCCCN1CCOCC1 (stereo not drawn) [Example 25, (3-Fluoro-4-((7-methoxy-6-(3-morpholinopropoxy)quinazolin-4-yl)amino)phenyl)-2-(1-oxoisoindolin-2-yl)-2-phenylacetamide]
EGFR L858R/T790M (LR/TM)
  IC50: 7.3 ± 1.3 nM
EGFR(WT)
  IC50: 1.6 ± 0.3 nM
[1]
  IC50: 97.5 ± 12.9 nM

## COc1cc2ncnc(Nc3ccc(NC(=O)C(c4ccccc4)N4Cc5ccccc5C4=O)cc3F)c2cc1OCC1CCN(C)CC1 (stereo not drawn) [Example 23]
EGFR L858R/T790M (LR/TM)
  IC50: 2.4 ± 0.5 nM
EGFR(WT)
  IC50: 0.8 ± 0.3 nM
[1]
  IC50: 18 ± 8.6 nM

## COc1cc2c(Nc3ccc(NC(=O)[C@H](c4ccccc4)N4Cc5ccccc5C4=O)cc3F)ncnc2cc1OCC1CCN(C)CC1 [Example 19, (S)—N-(3-Fluoro-4-((6-methoxy-7-((1-methylpiperidin-4-yl)methoxy)quinazolin-4-yl)amino)phenyl)-2-(1-oxoisoindolin-2-yl)-2-phenylacetamide]
EGFR L858R/T790M (LR/TM)
  IC50: 8.6 ± 2.1 nM
EGFR(WT)
  IC50: 4.6 ± 2.8 nM
[1]
  IC50: 7.9 ± 2 nM

## COc1cc2c(Nc3ccc(NC(=O)[C@@H](c4ccccc4)N4Cc5ccccc5C4=O)cc3F)ncnc2cc1OCC1CCN(C)CC1 [Example 20, (R)—N-(3-Fluoro-4-((6-methoxy-7-((1-methylpiperidin-4-yl)methoxy)quinazolin-4-yl)amino)phenyl)-2-(1-oxoisoindolin-2-yl)-2-phenylacetamide]
EGFR L858R/T790M (LR/TM)
  IC50: 6.4 ± 1.6 nM
EGFR(WT)
  IC50: 3.5 ± 1 nM
[1]
  IC50: 19.2 ± 3.2 nM

## COc1cc2c(Nc3ccccc3P(C)(C)=O)ncnc2cc1OCC1CCN(C)CC1 [Example 13, (2-((6-methoxy-7-((1-methylpiperidin-4-yl)methoxy)quinazolin-4-yl)amino)phenyl)dimethyl phosphine oxide]
EGFR L858R/T790M (LR/TM)
  IC50: > 10000 nM
other
  melting point: 150.5 to 150.8 °C
EGFR(WT)
  IC50: 7340 ± 2520 nM
[1]
  IC50: > 10000 nM

## COc1cc2c(Nc3ccc(NC(=O)C(c4cccc(F)c4)N4Cc5ccccc5C4=O)cc3F)ncnc2cc1OCC1CCN(C)CC1 (stereo not drawn) [Example 22, N-(3-Fluoro-4-((6-methoxy-7-((1-methylpiperidin-4-yl)methoxy)quinazolin-4-yl)amino)phenyl)-2-(3fluorophenyl)-2-(1-oxoisoindolin-2-yl)acetamide]
EGFR L858R/T790M (LR/TM)
  IC50: 6.7 ± 2.2 nM
EGFR(WT)
  IC50: 2 ± 0.5 nM
[1]
  IC50: 13.4 ± 2.7 nM

## COc1cc2ncnc(Nc3ccc(NC(=O)c4ccccc4)cc3F)c2cc1OC [Example 15]
EGFR L858R/T790M (LR/TM)
  IC50: > 10000 nM
[1]
  IC50: > 10000 nM

## COc1cc2c(Nc3cc(NC(=O)Cc4ccccc4)ccc3F)ncnc2cc1OCC1CCN(C)CC1 [Example 4, N-(4-Fluoro-3-((6-methoxy-7-((1-methylpiperidin-4-yl)methoxy)quinazolin-4-yl)amino)phenyl)-2-phenylacetamide]
EGFR L858R/T790M (LR/TM)
  IC50: > 10000 nM
EGFR(WT)
  IC50: 1350 ± 312 nM
[1]
  IC50: > 10000 nM

## COc1cc2nc(N)nc(Nc3ccc(NC(=O)C(c4ccccc4)N4Cc5ccccc5C4=O)cc3F)c2cc1OC (stereo not drawn) [Example 27, (4-((2-amino-6,7-dimethoxyquinazolin-4-yl)amino)-3-fluorophenyl)-2-(1-oxoisoindoline-2-yl)-2-phenylacetamide]
EGFR L858R/T790M (LR/TM)
  IC50: > 10000 nM
EGFR(WT)
  IC50: 388 ± 55.3 nM
[1]
  IC50: > 10000 nM

## COc1cc2c(Nc3ccc(OCc4ccccc4)cc3)ncnc2cc1OCC1CCN(C)CC1 [Example 7, N-(4-(benzyloxy)phenyl)-6-methoxy-7-((1-methylpiperidin-4-yl)methoxy)quinazolin-4-amine]
EGFR L858R/T790M (LR/TM)
  IC50: 4630 ± 825 nM
EGFR(WT)
  IC50: 2.6 ± 1.3 nM
[1]
  IC50: 5570 ± 1000 nM

## COc1cc2c(Nc3ccc(NC(=O)C(C4CCCCC4)N4Cc5ccccc5C4=O)cc3F)ncnc2cc1OCC1CCN(C)CC1 (stereo not drawn) [Example 21, 2-cyclohexyl-N-(3-fluoro-4-((6-methoxy-7-((1-methylpiperidin-4-yl)methoxy)quinazoline-4-yl)amino)phenyl)-2-(1-oxoisoindolin-2-yl)acetamide]
EGFR L858R/T790M (LR/TM)
  IC50: 180 ± 94.9 nM
EGFR(WT)
  IC50: 27.1 ± 12 nM
[1]
  IC50: 361 ± 123 nM

## COc1cc2c(Nc3ccc(NC(=O)C(c4ccccc4)C(C)C)cc3F)ncnc2cc1OCC1CCN(C)CC1 (stereo not drawn) [Example 10, N-(3-Fluoro-4-((6-methoxy-7-((1-methylpiperidin-4-yl)methoxy)quinazolin-4-yl)amino)phenyl)-3-methyl-2-phenylbutanamide]
EGFR L858R/T790M (LR/TM)
  IC50: 2030 ± 755 nM
other
  melting point: 196 to 196.2 °C
EGFR(WT)
  IC50: 23.1 ± 8.3 nM
[1]
  IC50: 3190 ± 2500 nM

## COc1cc2ncnc(Nc3ccc(NC(=O)C(c4ccccc4)N4Cc5ccccc5C4=O)cc3F)c2cc1OCN1CCN(C)CC1 (stereo not drawn) [Example 24]
EGFR L858R/T790M (LR/TM)
  IC50: 4.8 ± 0.7 nM
EGFR(WT)
  IC50: 1 ± 0.2 nM
[1]
  IC50: 19.1 ± 4.6 nM

## COCCOc1cc2ncnc(Nc3ccc(NC(=O)C(c4ccccc4)N4Cc5ccccc5C4=O)cc3F)c2cc1OCCOC (stereo not drawn) [Example 26, (4-((6,7-bis(2-methoxyethoxy)quinazolin-4-yl)amino)-3-fluorophenyl)-2-(1-oxoisoindolin-2-yl)-2-phenylacetamide]
EGFR L858R/T790M (LR/TM)
  IC50: 1.5 ± 0.2 nM
EGFR(WT)
  IC50: 0.7 ± 0.1 nM
[1]
  IC50: 8.5 ± 2.6 nM

## COc1cc2c(Nc3ccc(NC(=O)Cc4ccccc4)cc3F)ncnc2cc1OCC1CCN(C)CC1 [Example 3, N-(3-Fluoro-4-((6-methoxy-7-((1-methylpiperidin-4-yl)methoxy)quinazolin-4-yl)amino)phenyl)-2-phenylacetamide]
EGFR L858R/T790M (LR/TM)
  IC50: 7560 ± 1200 nM
EGFR(WT)
  IC50: 3.7 ± 1.6 nM
[1]
  IC50: > 10000 nM

## COc1cc2c(Nc3ccc(NC(=O)C(c4ccccc4)c4ccccc4)cc3F)ncnc2cc1OCC1CCN(C)CC1 [Example 11, N-(3-fluoro-4-((6-methoxy-7-((1-methylpiperidin-4-yl)methoxy)quinazolin-4-yl)amino)phenyl)-2,2-diphenyl]
EGFR L858R/T790M (LR/TM)
  IC50: 1000 ± 435 nM
other
  melting point: 257 to 257.2 °C
EGFR(WT)
  IC50: 5.6 ± 3.3 nM
[1]
  IC50: 1300 ± 308 nM

## COc1cc2c(Nc3ccc(NC(=O)C(c4cc(F)ccc4F)N4Cc5ccccc5C4=O)cc3F)ncnc2cc1OCC1CCN(C)CC1 (stereo not drawn) [Example 28, 2-(2,5-Difluorophenyl)-N-(3-fluoro-4-((6-methoxy-7-((1-methylpiperidin-4-yl)methoxy)quinazolin-4-yl)amino)phenyl)-2-(1-oxoisoindolin-2-yl)acetamide]
EGFR L858R/T790M (LR/TM)
  IC50: 35.3 ± 12.1 nM
EGFR(WT)
  IC50: 2.5 ± 0.8 nM
[1]
  IC50: 27.5 ± 17.7 nM

## CN1CCC(COc2ccc3c(Nc4ccccc4P(C)(C)=O)ncnc3c2)CC1 [Example 14]
EGFR L858R/T790M (LR/TM)
  IC50: > 10000 nM
other
  melting point: 170.7 to 172.4 °C
EGFR(WT)
  IC50: 2710 ± 80.2 nM
[1]
  IC50: 9510 ± 526 nM

## COc1cc2ncnc(Nc3cc(NC(=O)c4ccccc4)ccc3F)c2cc1OC [Example 16]
EGFR L858R/T790M (LR/TM)
  IC50: > 10000 nM
EGFR(WT)
  IC50: 137 ± 80.2 nM
[1]
  IC50: > 10000 nM

## COc1cc2c(Nc3cc(NC(=O)CC4Cc5ccccc5C4)ccc3F)ncnc2cc1OCC1CCN(C)CC1 [Example 6, 2-(2,3-Dihydro-1H-inden-2-yl)-N-(4-fluoro-3-((6-methoxy-7-((1-methylpiperidin-4-yl)methoxy)quinazolin-4-yl)amino)phenyl)acetamide]
EGFR L858R/T790M (LR/TM)
  IC50: 3030 ± 689 nM
EGFR(WT)
  IC50: 1100 ± 180 nM
[1]
  IC50: > 10000 nM

## COc1cc2c(Nc3ccc(NC(=O)C(c4ccccc4)N4Cc5ccccc5C4=O)cc3F)ncnc2cc1OCC1CCN(C)CC1 (stereo not drawn) [Example 12]
EGFR L858R/T790M (LR/TM)
  IC50: 3.2 ± 0.8 nM
EGFR(WT)
  IC50: 1.3 ± 0.3 nM
[1]
  IC50: 14.5 ± 3.3 nM
